Assay results: PMC5218480 (PLoS ONE, 2017)

Test system: MV-4-11 cells
Experiment: Gene expression microarray analysis (Affymetrix PrimeView) and GSEA
Format: cell-based, human
Set-up: RFU PODN (11730768_x_at) / Fold change /veh PODN (11730768_x_at) / RFU LINC00158 (11744669_a_at) / Fold change /veh LINC00158 (11744669_a_at) / RFU DUSP10 (11751237_a_at) / Fold change /veh DUSP10 (11751237_a_at) / RFU ID3 (11757404_x_at) / Fold change /veh ID3 (11757404_x_at) / RFU PLEKHG5 (11737974_s_at) / Fold change /veh PLEKHG5 (11737974_s_at) / RFU LRRC4B (11730491_at) / Fold change /veh LRRC4B (11730491_at) / RFU GIMAP4 (11747438_a_at) / Fold change /veh GIMAP4 (11747438_a_at) / RFU KRT8 (11758183_x_at) / Fold change /veh KRT8 (11758183_x_at) / RFU CNN1 (11734310_a_at) / Fold change /veh CNN1 (11734310_a_at) / RFU VPS37D (11726825_at) / Fold change /veh VPS37D (11726825_at) / RFU C10orf10 (11716522_x_at) / Fold change /veh C10orf10 (11716522_x_at) / RFU KIR2DL2 /// KIR2DL4 /// KIR2DL5A /// KIR2DL5B /// KIR2DS1 /// KIR2DS2 /// KIR2DS3 /// KIR2DS4 /// KIR3DL3 /// KIR3DL3 /// KIR3DS1 (11738374_at) / Fold change /veh KIR2DL2 /// KIR2DL4 /// KIR2DL5A /// KIR2DL5B /// KIR2DS1 /// KIR2DS2 /// KIR2DS3 /// KIR2DS4 /// KIR3DL3 /// KIR3DL3 /// KIR3DS1 (11738374_at) / RFU C1QL1 (11718748_at) / Fold change /veh C1QL1 (11718748_at) / RFU TMPRSS4 (11747572_a_at) / Fold change /veh TMPRSS4 (11747572_a_at) / RFU HAMP (11756126_x_at) / Fold change /veh HAMP (11756126_x_at) / RFU RNFT2 (11725882_a_at) / Fold change /veh RNFT2 (11725882_a_at) / RFU NR4A2 (11747474_a_at) / Fold change /veh NR4A2 (11747474_a_at) / RFU ABCC12 (11746883_a_at) / Fold change /veh ABCC12 (11746883_a_at) / RFU TMEM136 (11760407_x_at) / Fold change /veh TMEM136 (11760407_x_at) / RFU CLDN22 /// WWC2 (11732394_at) / Fold change /veh CLDN22 /// WWC2 (11732394_at) / RFU HLA-DPB1 (11760878_x_at) / Fold change /veh HLA-DPB1 (11760878_x_at) / RFU SPINT1 (11716480_a_at) / Fold change /veh SPINT1 (11716480_a_at) / RFU GAP43 (11754022_s_at) / Fold change /veh GAP43 (11754022_s_at) / RFU A4GNT (11735810_at) / Fold change /veh A4GNT (11735810_at) / RFU PRB3 (11715151_x_at) / Fold change /veh PRB3 (11715151_x_at) / RFU TUBB4B (11761932_at) / Fold change /veh TUBB4B (11761932_at) / RFU CAPN14 (11732068_a_at) / Fold change /veh CAPN14 (11732068_a_at) / RFU TMCC2 (11721928_a_at) / Fold change /veh TMCC2 (11721928_a_at) / RFU IRGQ (11745062_a_at) / Fold change /veh IRGQ (11745062_a_at) / RFU FAM174B (11720279_a_at) / Fold change /veh FAM174B (11720279_a_at) / RFU TMPRSS4 (11748680_a_at) / Fold change /veh TMPRSS4 (11748680_a_at) / RFU FAM212B (11763350_a_at) / Fold change /veh FAM212B (11763350_a_at) / RFU PLEKHG5 (11743358_a_at) / Fold change /veh PLEKHG5 (11743358_a_at) / RFU ZSCAN30 (11745921_a_at) / Fold change /veh ZSCAN30 (11745921_a_at) / RFU CMKLR1 (11741424_a_at) / Fold change /veh CMKLR1 (11741424_a_at) / RFU LOC101060620 /// MAPK8IP1 (11723275_at) / Fold change /veh LOC101060620 /// MAPK8IP1 (11723275_at) / RFU SPTSSB (11747773_x_at) / Fold change /veh SPTSSB (11747773_x_at) / RFU PRSS12 (11739890_at) / Fold change /veh PRSS12 (11739890_at) / RFU BIN1 (11741810_x_at) / Fold change /veh BIN1 (11741810_x_at) / RFU WNT11 (11732464_a_at) / Fold change /veh WNT11 (11732464_a_at) / RFU C10orf10 (11716521_a_at) / Fold change /veh C10orf10 (11716521_a_at) / RFU C5orf56 (11738089_at) / Fold change /veh C5orf56 (11738089_at) / RFU CYB561 (11721691_x_at) / Fold change /veh CYB561 (11721691_x_at) / RFU ANKRD19P (11752326_a_at) / Fold change /veh ANKRD19P (11752326_a_at) / RFU OR2T12 /// OR2T33 /// OR2T8 (11738714_s_at) / Fold change /veh OR2T12 /// OR2T33 /// OR2T8 (11738714_s_at) / RFU VCAN (11748164_a_at) / Fold change /veh VCAN (11748164_a_at) / RFU JSRP1 (11732532_at) / Fold change /veh JSRP1 (11732532_at) / RFU KRTAP10-11 (11738290_x_at) / Fold change /veh KRTAP10-11 (11738290_x_at) / RFU MYO3A (11730013_a_at) / Fold change /veh MYO3A (11730013_a_at) / RFU EBF3 (11725865_a_at) / Fold change /veh EBF3 (11725865_a_at) / RFU CAMK2N1 (11719241_x_at) / Fold change /veh CAMK2N1 (11719241_x_at) / RFU C5orf56 (11738088_a_at) / Fold change /veh C5orf56 (11738088_a_at) / RFU OLFML3 (11715873_a_at) / Fold change /veh OLFML3 (11715873_a_at) / RFU LOC100653217 /// NTM (11731650_a_at) / Fold change /veh LOC100653217 /// NTM (11731650_a_at) / RFU MAPK11 (11762145_a_at) / Fold change /veh MAPK11 (11762145_a_at) / RFU FIZ1 (11724087_x_at) / Fold change /veh FIZ1 (11724087_x_at) / RFU OASL (11726364_x_at) / Fold change /veh OASL (11726364_x_at) / RFU SOX15 (11748057_x_at) / Fold change /veh SOX15 (11748057_x_at) / RFU CD79A (11719716_a_at) / Fold change /veh CD79A (11719716_a_at) / RFU HIST1H1D (11736915_at) / Fold change /veh HIST1H1D (11736915_at) / RFU CASKIN2 (11723855_a_at) / Fold change /veh CASKIN2 (11723855_a_at) / RFU LOC730098 (11760151_x_at) / Fold change /veh LOC730098 (11760151_x_at) / RFU OR4N2 (11742367_at) / Fold change /veh OR4N2 (11742367_at) / RFU PRRT2 (11749266_a_at) / Fold change /veh PRRT2 (11749266_a_at) / RFU SNX32 (11753110_a_at) / Fold change /veh SNX32 (11753110_a_at) / RFU CDHR5 (11726645_a_at) / Fold change /veh CDHR5 (11726645_a_at) / RFU RCAN1 (11760418_a_at) / Fold change /veh RCAN1 (11760418_a_at) / RFU FAM167A (11723789_a_at) / Fold change /veh FAM167A (11723789_a_at) / RFU FAM26E (11764081_at) / Fold change /veh FAM26E (11764081_at) / RFU ISYNA1 (11749810_s_at) / Fold change /veh ISYNA1 (11749810_s_at) / RFU ACY1 (11761880_at) / Fold change /veh ACY1 (11761880_at) / RFU 11764098_at / Fold change /veh 11764098_at / RFU SAMD14 (11745864_x_at) / Fold change /veh SAMD14 (11745864_x_at) / RFU NPB (11741838_a_at) / Fold change /veh NPB (11741838_a_at) / RFU TMPRSS6 (11731388_a_at) / Fold change /veh TMPRSS6 (11731388_a_at) / RFU KRTAP10-2 (11738614_at) / Fold change /veh KRTAP10-2 (11738614_at) / RFU ARHGAP8 /// PRR5-ARHGAP8 (11727945_x_at) / Fold change /veh ARHGAP8 /// PRR5-ARHGAP8 (11727945_x_at) / RFU KRTAP5-7 /// NADSYN1 (11734609_at) / Fold change /veh KRTAP5-7 /// NADSYN1 (11734609_at) / RFU RASL12 (11751679_a_at) / Fold change /veh RASL12 (11751679_a_at) / RFU CDKN2B (11736163_a_at) / Fold change /veh CDKN2B (11736163_a_at) / RFU PRF1 (11729649_at) / Fold change /veh PRF1 (11729649_at) / RFU, ZNF638 /// ZNF638-IT1 / Fold change vs veh, ZNF638 /// ZNF638-IT1 / RFU, PANK3 / Fold change vs veh, PANK3 / RFU, SH3YL1 / Fold change vs veh, SH3YL1 / RFU, ZEB2 / Fold change vs veh, ZEB2 / RFU, NRIP1 / Fold change vs veh, NRIP1 / RFU, PTTG1IP / Fold change vs veh, PTTG1IP / RFU, CAPN2 / Fold change vs veh, CAPN2 / RFU, MED14 / Fold change vs veh, MED14 / RFU, SNORA58 / Fold change vs veh, SNORA58 / RFU, C1orf63 / Fold change vs veh, C1orf63 / RFU, LRRFIP1 / Fold change vs veh, LRRFIP1 / RFU, NDUFAF7 / Fold change vs veh, NDUFAF7 / RFU, SLC12A2 / Fold change vs veh, SLC12A2 / RFU, IBTK / Fold change vs veh, IBTK / RFU, ESF1 / Fold change vs veh, ESF1 / Fold change vs veh, TMEM50B / RFU, TAOK1 / Fold change vs veh, TAOK1 / RFU, ACBD3 / Fold change vs veh, ACBD3 / RFU, TMA16 / Fold change vs veh, TMA16 / RFU, RWDD3 / Fold change vs veh, RWDD3 / RFU, BCAT1 / Fold change vs veh, BCAT1 / RFU, EDEM3 / Fold change vs veh, EDEM3 / RFU, TMEM33 / Fold change vs veh, TMEM33 / RFU, WDR75 / Fold change vs veh, WDR75 / RFU, AHCTF1 / Fold change vs veh, AHCTF1 / RFU, TFRC / Fold change vs veh, TFRC / RFU, ZDHHC17 / Fold change vs veh, ZDHHC17 / RFU, NOM1 / Fold change vs veh, NOM1 / RFU, ARL8B / Fold change vs veh, ARL8B / RFU, ZBTB11 / Fold change vs veh, ZBTB11 / RFU, TAMM41 / Fold change vs veh, TAMM41 / RFU, KIAA1704 /// LOC100996395 / Fold change vs veh, KIAA1704 /// LOC100996395 / RFU, ING1 / Fold change vs veh, ING1 / RFU, TRMT61B / Fold change vs veh, TRMT61B / RFU, FUBP3 / Fold change vs veh, FUBP3 / RFU, TP53 / Fold change vs veh, TP53 / RFU, TNKS2 / Fold change vs veh, TNKS2 / RFU, ZFP14 / Fold change vs veh, ZFP14 / RFU, ACTR2 / Fold change vs veh, ACTR2 / RFU, PPP3R1 / Fold change vs veh, PPP3R1 / RFU, PIK3R1 / Fold change vs veh, PIK3R1 / RFU, HNRNPA1 / Fold change vs veh, HNRNPA1 / RFU, RNF170 / Fold change vs veh, RNF170 / RFU, ZNF28 / Fold change vs veh, ZNF28 / RFU, RNGTT / Fold change vs veh, RNGTT / RFU, OGT / Fold change vs veh, OGT / RFU, BRD1 / Fold change vs veh, BRD1 / RFU, MARS / Fold change vs veh, MARS / RFU, ZNF655 / Fold change vs veh, ZNF655 / RFU, FAHD1 / Fold change vs veh, FAHD1 / RFU, BDP1 / Fold change vs veh, BDP1 / RFU, LRRCC1 / Fold change vs veh, LRRCC1 / RFU, ARID1A / Fold change vs veh, ARID1A / RFU, ZNF146 / Fold change vs veh, ZNF146 / RFU, ZNF330 / Fold change vs veh, ZNF330 / RFU, GPN3 / Fold change vs veh, GPN3 / RFU, C9orf123 / Fold change vs veh, C9orf123 / RFU, N4BP2L2 / Fold change vs veh, N4BP2L2 / RFU, ARFIP1 / Fold change vs veh, ARFIP1 / RFU, FAM179B / Fold change vs veh, FAM179B / RFU, BCL10 / Fold change vs veh, BCL10 / RFU, UHRF1BP1L / Fold change vs veh, UHRF1BP1L / RFU, BET1 / Fold change vs veh, BET1 / RFU, CNOT2 / Fold change vs veh, CNOT2 / RFU, ZNF268 / Fold change vs veh, ZNF268 / Fold change vs veh, ZNF507 / RFU, DGCR2 / Fold change vs veh, DGCR2 / RFU, WDSUB1 / Fold change vs veh, WDSUB1 / Fold change vs veh, HSP90B1 /// MIR3652 / RFU, ADSS / Fold change vs veh, ADSS / RFU, GK / Fold change vs veh, GK / RFU, ZNF148 / Fold change vs veh, ZNF148 / RFU, TAF9 / Fold change vs veh, TAF9 / RFU, SLC1A5 / Fold change vs veh, SLC1A5 / RFU, SLMO2 / Fold change vs veh, SLMO2 / RFU, ABCC4 / Fold change vs veh, ABCC4 / RFU, LOC101060439 /// RAP1B / Fold change vs veh, LOC101060439 /// RAP1B / RFU, RFX7 / Fold change vs veh, RFX7 / RFU, GTPBP10 / Fold change vs veh, GTPBP10 / RFU, CNEP1R1 / Fold change vs veh, CNEP1R1 / RFU, BIVM-ERCC5 /// ERCC5 / Fold change vs veh, BIVM-ERCC5 /// ERCC5 / RFU, ILF3 / Fold change vs veh, ILF3 / RFU 11762660_at / Fold change /veh 11762660_at / RFU VCAN (11757783_s_at) / Fold change /veh VCAN (11757783_s_at) / RFU DDX43 (11728927_at) / Fold change /veh DDX43 (11728927_at) / RFU KRT8 (11758188_x_at) / Fold change /veh KRT8 (11758188_x_at) / RFU NKD1 (11759106_at) / Fold change /veh NKD1 (11759106_at) / RFU SRD5A1 (11742802_a_at) / Fold change /veh SRD5A1 (11742802_a_at) / RFU TPSAB1 /// TPSB2 (11721975_s_at) / Fold change /veh TPSAB1 /// TPSB2 (11721975_s_at) / RFU GSTM3 (11746129_a_at) / Fold change /veh GSTM3 (11746129_a_at) / RFU IL23R (11737362_x_at) / Fold change /veh IL23R (11737362_x_at) / RFU TMEM51 (11727254_a_at) / Fold change /veh TMEM51 (11727254_a_at) / RFU PIWIL2 (11732686_x_at) / Fold change /veh PIWIL2 (11732686_x_at) / RFU ORM1 (11744905_x_at) / Fold change /veh ORM1 (11744905_x_at) / RFU CCDC152 (11743942_at) / Fold change /veh CCDC152 (11743942_at) / RFU ECM1 (11717891_a_at) / Fold change /veh ECM1 (11717891_a_at) / RFU IL23R (11748794_a_at) / Fold change /veh IL23R (11748794_a_at) / RFU TNFAIP8L3 (11732012_x_at) / Fold change /veh TNFAIP8L3 (11732012_x_at) / RFU MBOAT4 (11741988_at) / Fold change /veh MBOAT4 (11741988_at) / RFU 11764193_at / Fold change /veh 11764193_at / RFU TMEM53 (11763286_at) / Fold change /veh TMEM53 (11763286_at) / RFU MAGEB2 (11727129_at) / Fold change /veh MAGEB2 (11727129_at) / RFU TMEM200A (11744735_a_at) / Fold change /veh TMEM200A (11744735_a_at) / RFU CCDC152 (11751479_a_at) / Fold change /veh CCDC152 (11751479_a_at) / RFU FAM211A (11726209_a_at) / Fold change /veh FAM211A (11726209_a_at) / RFU RGS16 (11746705_a_at) / Fold change /veh RGS16 (11746705_a_at) / RFU VCAN (11755009_s_at) / Fold change /veh VCAN (11755009_s_at) / RFU RHOB (11743442_s_at) / Fold change /veh RHOB (11743442_s_at) / RFU RGS16 (11720943_a_at) / Fold change /veh RGS16 (11720943_a_at) / RFU RGS16 (11720944_at) / Fold change /veh RGS16 (11720944_at) / RFU, VPS4B / Fold change vs veh, VPS4B / RFU, CREB1 / Fold change vs veh, CREB1 / RFU, DNAJC13 / Fold change vs veh, DNAJC13 / RFU, GNAQ / Fold change vs veh, GNAQ / RFU, CDK5R1 / Fold change vs veh, CDK5R1 / RFU, ZRANB3 / Fold change vs veh, ZRANB3 / RFU, CUL4A / Fold change vs veh, CUL4A / RFU, CCNY / Fold change vs veh, CCNY / RFU, UFL1 / Fold change vs veh, UFL1 / RFU, COG3 / Fold change vs veh, COG3 / RFU, DIAPH2 / Fold change vs veh, DIAPH2 / RFU, SKA2 / Fold change vs veh, SKA2 / RFU, AFF3 / Fold change vs veh, AFF3 / RFU, LMF1 / Fold change vs veh, LMF1 / RFU, IPO11 / Fold change vs veh, IPO11 / RFU, DFFB / Fold change vs veh, DFFB / RFU, FOXP1 / Fold change vs veh, FOXP1 / RFU, CARD8 / Fold change vs veh, CARD8 / RFU, STRN3 / Fold change vs veh, STRN3 / RFU, ADK / Fold change vs veh, ADK / RFU, RASSF2 / Fold change vs veh, RASSF2 / RFU, WIPF1 / Fold change vs veh, WIPF1 / RFU, LARP1B / Fold change vs veh, LARP1B / RFU, RASA1 / Fold change vs veh, RASA1 / RFU, RB1 / Fold change vs veh, RB1 / RFU, PPFIA1 / Fold change vs veh, PPFIA1 / RFU, MAT2A / Fold change vs veh, MAT2A / RFU, CCT5 / Fold change vs veh, CCT5 / RFU, WDR92 / Fold change vs veh, WDR92 / RFU, CUX1 / Fold change vs veh, CUX1 / RFU, TTC7A / Fold change vs veh, TTC7A / RFU, TMEM135 / Fold change vs veh, TMEM135 / RFU, DEPTOR / Fold change vs veh, DEPTOR / RFU, CPM / Fold change vs veh, CPM / RFU, DNAJB6 / Fold change vs veh, DNAJB6 / RFU, CACNA2D3 / Fold change vs veh, CACNA2D3 / RFU, DTX4 / Fold change vs veh, DTX4 / RFU, TFCP2 / Fold change vs veh, TFCP2 / RFU, GMCL1 /// GMCL1P1 / Fold change vs veh, GMCL1 /// GMCL1P1 / RFU, AEBP2 / Fold change vs veh, AEBP2 / RFU, SNHG1 /// SNORD22 /// SNORD25 /// SNORD26 /// SNORD27 /// SNORD28 /// SNORD29 /// SNORD31 / Fold change vs veh, SNHG1 /// SNORD22 /// SNORD25 /// SNORD26 /// SNORD27 /// SNORD28 /// SNORD29 /// SNORD31 / Fold change (Aza/veh), C12orf56 (ProbeSet 11735607_a_at) / Fold change (ACY-1035/veh), C12orf56 (ProbeSet 11735607_a_at) / Fold change (Aza/veh), FGFR1OP (ProbeSet 11751329_s_at) / Fold change (ACY-1035/veh), FGFR1OP (ProbeSet 11751329_s_at) / Fold change (Aza/veh), VPS36 (ProbeSet 11739960_a_at) / Fold change (ACY-1035/veh), VPS36 (ProbeSet 11739960_a_at) / RFU SYPL1 (11715823_x_at) / Fold change /veh SYPL1 (11715823_x_at) / RFU IGFBP7 (11715501_s_at) / Fold change /veh IGFBP7 (11715501_s_at) / RFU REEP3 (11722064_at) / Fold change /veh REEP3 (11722064_at) / RFU IGLL1 (11728026_x_at) / Fold change /veh IGLL1 (11728026_x_at): dose or concentration left out as unconfirmed
Conditions: ProbeSet 11754362_a_at; LIST D

Nc1ncn([C@@H]2O[C@H](CO)[C@@H](O)[C@H]2O)c(=O)n1 [azacitidine]
RFU, TTC7A: 124.13 RFU
